How the values were obtained:
[1] = target: T1, NUAK family SNF1-like kinase 1 (Homo sapiens) (UniProt O60285); experiment: NUAK1 Invitrogen selectivity data (BI); conditions: Compound concentration 3.0 uM
T1 sequence (whole entry): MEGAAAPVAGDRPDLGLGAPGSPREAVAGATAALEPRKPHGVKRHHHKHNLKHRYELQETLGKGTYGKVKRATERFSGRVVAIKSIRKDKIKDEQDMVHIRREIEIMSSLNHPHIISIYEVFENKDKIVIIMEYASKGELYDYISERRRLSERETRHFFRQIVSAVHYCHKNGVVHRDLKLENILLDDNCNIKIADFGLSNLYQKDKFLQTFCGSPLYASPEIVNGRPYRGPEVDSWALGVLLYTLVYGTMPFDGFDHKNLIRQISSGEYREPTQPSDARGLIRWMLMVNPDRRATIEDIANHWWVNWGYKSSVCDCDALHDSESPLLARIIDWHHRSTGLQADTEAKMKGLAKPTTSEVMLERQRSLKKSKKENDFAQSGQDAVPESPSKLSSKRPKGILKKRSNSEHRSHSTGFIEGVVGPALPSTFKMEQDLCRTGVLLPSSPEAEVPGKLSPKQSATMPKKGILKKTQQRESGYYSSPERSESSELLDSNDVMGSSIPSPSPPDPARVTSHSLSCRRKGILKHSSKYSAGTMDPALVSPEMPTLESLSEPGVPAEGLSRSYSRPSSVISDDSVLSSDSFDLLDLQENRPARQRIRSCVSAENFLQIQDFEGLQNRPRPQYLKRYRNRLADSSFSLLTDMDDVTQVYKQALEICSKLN

[2] = target: Casein kinase I isoform alpha (Homo sapiens) (UniProt P48729); experiment: CSNK1A1 Invitrogen selectivity data (BI); conditions: Compound concentration 3.0 uM
Sequence of Casein kinase I isoform alpha (Homo sapiens) (P48729 2-337 limits assumed): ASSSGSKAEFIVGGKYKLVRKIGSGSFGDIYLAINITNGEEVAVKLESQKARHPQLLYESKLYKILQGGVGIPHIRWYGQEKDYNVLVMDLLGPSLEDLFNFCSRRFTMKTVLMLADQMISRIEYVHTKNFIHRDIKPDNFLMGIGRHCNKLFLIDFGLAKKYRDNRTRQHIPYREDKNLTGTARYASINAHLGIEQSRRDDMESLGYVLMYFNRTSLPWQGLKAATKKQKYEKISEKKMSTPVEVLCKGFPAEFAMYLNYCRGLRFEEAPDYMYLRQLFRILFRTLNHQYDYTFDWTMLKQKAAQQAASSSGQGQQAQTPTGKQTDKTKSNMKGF

[3] = target: T2, Serine/threonine-protein kinase Nek9 (Homo sapiens) (UniProt Q8TD19); experiment: NEK9 Invitrogen selectivity data (BI); conditions: Compound concentration 3.0 uM
T2 sequence (whole entry): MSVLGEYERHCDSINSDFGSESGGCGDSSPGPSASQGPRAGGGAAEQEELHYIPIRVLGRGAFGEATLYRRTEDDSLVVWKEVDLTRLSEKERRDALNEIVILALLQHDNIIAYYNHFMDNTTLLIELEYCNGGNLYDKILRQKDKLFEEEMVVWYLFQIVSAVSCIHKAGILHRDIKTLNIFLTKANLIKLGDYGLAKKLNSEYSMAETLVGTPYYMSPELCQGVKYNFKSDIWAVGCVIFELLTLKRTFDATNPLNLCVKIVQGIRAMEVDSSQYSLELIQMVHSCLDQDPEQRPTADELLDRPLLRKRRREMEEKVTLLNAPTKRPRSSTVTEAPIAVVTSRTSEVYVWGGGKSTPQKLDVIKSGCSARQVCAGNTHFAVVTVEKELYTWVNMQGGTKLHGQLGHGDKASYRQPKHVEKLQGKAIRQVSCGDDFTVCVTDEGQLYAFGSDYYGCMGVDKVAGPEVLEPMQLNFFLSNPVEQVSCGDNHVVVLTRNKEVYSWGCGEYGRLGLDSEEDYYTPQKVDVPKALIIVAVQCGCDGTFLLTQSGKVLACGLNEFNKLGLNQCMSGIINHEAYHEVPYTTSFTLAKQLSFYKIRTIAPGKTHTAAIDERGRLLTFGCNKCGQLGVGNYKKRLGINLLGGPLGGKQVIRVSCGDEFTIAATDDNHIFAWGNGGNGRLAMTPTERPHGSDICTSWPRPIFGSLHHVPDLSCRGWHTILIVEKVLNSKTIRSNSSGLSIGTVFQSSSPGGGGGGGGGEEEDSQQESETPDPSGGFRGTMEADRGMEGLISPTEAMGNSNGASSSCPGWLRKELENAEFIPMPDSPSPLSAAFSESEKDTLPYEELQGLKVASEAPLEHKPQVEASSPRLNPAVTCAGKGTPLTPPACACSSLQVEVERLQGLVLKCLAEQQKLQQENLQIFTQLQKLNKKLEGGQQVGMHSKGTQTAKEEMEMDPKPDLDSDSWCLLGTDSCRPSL

[4] = target: Ephrin type-A receptor 2 (Homo sapiens) (UniProt P29317); experiment: EPHA2 Invitrogen selectivity data (BI); conditions: Compound concentration 3.0 uM
Sequence of Ephrin type-A receptor 2 (Homo sapiens) (P29317 whole entry): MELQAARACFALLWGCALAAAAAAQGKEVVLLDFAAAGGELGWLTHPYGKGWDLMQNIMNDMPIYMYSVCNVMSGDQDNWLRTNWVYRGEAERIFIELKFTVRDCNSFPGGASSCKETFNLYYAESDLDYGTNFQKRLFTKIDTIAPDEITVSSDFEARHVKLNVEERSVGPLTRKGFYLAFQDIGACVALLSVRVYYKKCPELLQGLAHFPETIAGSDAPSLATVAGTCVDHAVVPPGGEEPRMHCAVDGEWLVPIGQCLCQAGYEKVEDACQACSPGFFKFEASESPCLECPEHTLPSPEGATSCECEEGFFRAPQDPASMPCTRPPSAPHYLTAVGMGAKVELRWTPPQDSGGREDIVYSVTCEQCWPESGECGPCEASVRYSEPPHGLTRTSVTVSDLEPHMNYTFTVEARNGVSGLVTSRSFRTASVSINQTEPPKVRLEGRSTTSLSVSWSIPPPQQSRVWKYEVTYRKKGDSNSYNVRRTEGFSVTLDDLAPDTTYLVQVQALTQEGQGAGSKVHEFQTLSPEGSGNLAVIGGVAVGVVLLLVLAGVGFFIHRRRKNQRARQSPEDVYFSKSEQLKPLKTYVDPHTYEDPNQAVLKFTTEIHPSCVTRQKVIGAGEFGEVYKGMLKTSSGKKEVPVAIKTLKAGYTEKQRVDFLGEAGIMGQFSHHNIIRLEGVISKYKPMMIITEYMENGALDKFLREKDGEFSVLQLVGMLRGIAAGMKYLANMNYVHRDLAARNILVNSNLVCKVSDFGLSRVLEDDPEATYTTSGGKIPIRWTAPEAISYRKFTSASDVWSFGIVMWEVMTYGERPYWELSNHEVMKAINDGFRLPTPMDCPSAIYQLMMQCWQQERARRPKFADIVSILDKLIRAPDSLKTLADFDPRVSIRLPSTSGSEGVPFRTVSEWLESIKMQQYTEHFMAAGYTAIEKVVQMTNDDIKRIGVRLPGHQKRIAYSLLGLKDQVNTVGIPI

[5] = target: Macrophage-stimulating protein receptor (Homo sapiens) (UniProt Q04912); experiment: MST1R Invitrogen selectivity data (BI); conditions: Compound concentration 3.0 uM
Sequence of Macrophage-stimulating protein receptor (Homo sapiens) (Q04912 25-304 limits assumed): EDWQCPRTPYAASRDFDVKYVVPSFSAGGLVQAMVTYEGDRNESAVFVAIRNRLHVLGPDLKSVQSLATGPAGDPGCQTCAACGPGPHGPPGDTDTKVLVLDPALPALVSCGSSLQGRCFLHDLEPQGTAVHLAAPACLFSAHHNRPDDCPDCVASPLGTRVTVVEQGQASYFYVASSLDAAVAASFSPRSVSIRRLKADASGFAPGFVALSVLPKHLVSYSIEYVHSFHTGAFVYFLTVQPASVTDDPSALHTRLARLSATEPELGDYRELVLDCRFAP
Sequence of Macrophage-stimulating protein receptor (Homo sapiens) (Q04912 310-1400 limits assumed): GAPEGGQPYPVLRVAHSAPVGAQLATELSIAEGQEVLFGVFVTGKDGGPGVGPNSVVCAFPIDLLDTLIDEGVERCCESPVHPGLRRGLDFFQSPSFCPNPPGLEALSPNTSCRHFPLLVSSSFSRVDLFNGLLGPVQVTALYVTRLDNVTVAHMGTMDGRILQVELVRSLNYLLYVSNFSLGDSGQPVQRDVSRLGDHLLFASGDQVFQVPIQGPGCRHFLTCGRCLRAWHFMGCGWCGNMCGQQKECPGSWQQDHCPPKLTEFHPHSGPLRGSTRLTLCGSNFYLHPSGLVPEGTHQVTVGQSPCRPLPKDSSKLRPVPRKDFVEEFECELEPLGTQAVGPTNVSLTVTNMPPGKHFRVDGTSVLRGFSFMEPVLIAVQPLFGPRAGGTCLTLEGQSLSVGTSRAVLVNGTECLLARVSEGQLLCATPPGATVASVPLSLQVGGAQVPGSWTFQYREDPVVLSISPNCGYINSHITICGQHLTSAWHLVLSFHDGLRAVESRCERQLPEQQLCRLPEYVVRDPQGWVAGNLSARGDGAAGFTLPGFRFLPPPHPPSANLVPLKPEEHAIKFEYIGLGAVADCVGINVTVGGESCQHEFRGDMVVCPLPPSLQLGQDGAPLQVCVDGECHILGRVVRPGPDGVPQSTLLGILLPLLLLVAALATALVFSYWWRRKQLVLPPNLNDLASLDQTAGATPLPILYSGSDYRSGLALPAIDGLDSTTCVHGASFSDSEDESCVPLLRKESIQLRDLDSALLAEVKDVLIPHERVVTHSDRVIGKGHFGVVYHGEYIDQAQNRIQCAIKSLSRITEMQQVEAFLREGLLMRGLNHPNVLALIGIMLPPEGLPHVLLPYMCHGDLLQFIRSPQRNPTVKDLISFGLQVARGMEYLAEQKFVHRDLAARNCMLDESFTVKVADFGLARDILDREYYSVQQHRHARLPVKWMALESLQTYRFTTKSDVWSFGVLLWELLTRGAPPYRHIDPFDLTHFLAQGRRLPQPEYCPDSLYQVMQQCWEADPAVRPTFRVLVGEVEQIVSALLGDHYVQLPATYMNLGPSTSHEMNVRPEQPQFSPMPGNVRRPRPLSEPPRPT

[6] = target: Mitogen-activated protein kinase 11 (Homo sapiens) (UniProt Q15759); experiment: MAPK11 Invitrogen selectivity data (BI); conditions: Compound concentration 3.0 uM
Sequence of Mitogen-activated protein kinase 11 (Homo sapiens) (Q15759 whole entry, the tested form may be a part): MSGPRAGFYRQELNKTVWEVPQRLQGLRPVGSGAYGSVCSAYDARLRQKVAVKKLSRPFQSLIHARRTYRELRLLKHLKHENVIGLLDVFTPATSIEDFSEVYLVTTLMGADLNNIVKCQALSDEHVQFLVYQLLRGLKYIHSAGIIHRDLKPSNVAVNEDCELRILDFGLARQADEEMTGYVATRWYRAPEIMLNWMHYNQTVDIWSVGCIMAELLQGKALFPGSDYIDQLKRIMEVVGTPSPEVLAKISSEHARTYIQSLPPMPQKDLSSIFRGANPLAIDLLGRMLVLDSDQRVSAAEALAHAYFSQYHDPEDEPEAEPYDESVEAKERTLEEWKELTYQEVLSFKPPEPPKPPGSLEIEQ

[7] = target: Epithelial discoidin domain-containing receptor 1 (Homo sapiens) (UniProt Q08345); experiment: DDR1 Invitrogen selectivity data (BI); conditions: Compound concentration 3.0 uM
Sequence of Epithelial discoidin domain-containing receptor 1 (Homo sapiens) (Q08345 whole entry, the tested form may be a part): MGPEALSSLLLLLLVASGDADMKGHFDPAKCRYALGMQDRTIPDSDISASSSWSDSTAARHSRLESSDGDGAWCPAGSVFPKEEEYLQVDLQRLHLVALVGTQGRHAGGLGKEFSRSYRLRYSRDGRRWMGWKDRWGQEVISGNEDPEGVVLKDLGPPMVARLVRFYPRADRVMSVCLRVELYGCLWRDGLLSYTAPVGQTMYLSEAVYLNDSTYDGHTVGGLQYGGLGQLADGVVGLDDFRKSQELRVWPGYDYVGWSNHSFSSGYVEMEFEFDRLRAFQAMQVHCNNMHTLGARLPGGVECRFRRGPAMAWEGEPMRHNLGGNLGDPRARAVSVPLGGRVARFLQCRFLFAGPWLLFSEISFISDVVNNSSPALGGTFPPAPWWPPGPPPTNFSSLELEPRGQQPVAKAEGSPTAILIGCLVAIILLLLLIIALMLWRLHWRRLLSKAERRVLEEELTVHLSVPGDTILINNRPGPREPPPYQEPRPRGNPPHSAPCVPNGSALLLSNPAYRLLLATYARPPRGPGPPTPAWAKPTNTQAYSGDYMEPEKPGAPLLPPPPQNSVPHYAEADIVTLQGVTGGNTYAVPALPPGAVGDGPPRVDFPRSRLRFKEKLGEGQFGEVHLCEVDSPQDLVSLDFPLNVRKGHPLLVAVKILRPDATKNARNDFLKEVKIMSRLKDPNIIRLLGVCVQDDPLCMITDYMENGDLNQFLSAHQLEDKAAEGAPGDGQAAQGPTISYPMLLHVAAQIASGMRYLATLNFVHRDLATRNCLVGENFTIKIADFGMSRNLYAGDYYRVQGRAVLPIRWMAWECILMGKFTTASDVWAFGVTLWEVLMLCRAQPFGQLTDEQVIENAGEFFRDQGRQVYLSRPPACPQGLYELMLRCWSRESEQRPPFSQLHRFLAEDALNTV

[8] = target: T3, Serine/threonine-protein kinase Nek2 (Homo sapiens) (UniProt P51955); experiment: NEK2 Invitrogen selectivity data (BI); conditions: Compound concentration 3.0 uM
T3 sequence (whole entry): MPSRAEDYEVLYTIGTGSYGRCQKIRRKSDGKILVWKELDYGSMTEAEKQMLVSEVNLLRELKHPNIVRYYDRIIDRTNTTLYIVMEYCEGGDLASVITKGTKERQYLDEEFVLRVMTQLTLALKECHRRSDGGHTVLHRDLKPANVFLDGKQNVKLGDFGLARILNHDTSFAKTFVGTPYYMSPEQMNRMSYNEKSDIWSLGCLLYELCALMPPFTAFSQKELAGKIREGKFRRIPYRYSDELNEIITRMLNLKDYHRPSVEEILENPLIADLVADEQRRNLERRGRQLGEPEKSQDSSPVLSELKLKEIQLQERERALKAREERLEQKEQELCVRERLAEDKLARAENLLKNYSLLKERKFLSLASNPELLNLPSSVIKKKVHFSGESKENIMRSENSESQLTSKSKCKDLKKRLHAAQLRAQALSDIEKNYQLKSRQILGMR

[9] = target: Glucocorticoid receptor (Homo sapiens) (UniProt P04150); experiment: GCORTICOID/H Cerep selectivity data (BI); conditions: Compound concentration 20.0 uM
Sequence of Glucocorticoid receptor (Homo sapiens) (P04150 whole entry): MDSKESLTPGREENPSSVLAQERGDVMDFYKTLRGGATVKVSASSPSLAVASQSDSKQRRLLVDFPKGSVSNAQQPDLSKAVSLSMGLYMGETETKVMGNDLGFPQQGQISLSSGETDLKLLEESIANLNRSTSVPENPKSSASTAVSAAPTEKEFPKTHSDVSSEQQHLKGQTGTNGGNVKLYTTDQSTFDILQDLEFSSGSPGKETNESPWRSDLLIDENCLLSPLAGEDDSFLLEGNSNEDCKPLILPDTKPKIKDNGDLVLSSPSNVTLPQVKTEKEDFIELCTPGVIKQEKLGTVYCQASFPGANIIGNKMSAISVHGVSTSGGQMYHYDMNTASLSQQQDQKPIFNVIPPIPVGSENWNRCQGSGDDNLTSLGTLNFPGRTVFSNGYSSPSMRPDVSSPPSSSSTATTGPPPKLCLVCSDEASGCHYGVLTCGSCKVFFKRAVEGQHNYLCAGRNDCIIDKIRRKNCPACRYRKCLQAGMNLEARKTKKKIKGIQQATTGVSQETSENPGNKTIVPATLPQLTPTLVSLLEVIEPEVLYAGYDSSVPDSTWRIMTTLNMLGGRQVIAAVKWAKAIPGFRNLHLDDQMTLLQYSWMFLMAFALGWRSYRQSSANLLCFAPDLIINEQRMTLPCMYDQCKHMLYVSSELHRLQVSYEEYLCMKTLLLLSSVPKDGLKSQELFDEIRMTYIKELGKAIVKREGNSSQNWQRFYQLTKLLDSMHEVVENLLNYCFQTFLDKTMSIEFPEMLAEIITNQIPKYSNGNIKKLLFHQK

Measured: residual activity

CN(C)C(=O)Cn1cc(-c2nc([C@@](C)(c3ccc(-c4cnc(N)nc4)cc3)C3CC3)no2)cn1 [BI 665915]
inactive: [1] 96% | [2] 96% | [3] 106% | [4] 99% | [5] 95% | [6] 93% | [7] 99% | [8] 88% | [9] 96%

— ChEMBL document CHEMBL4507276 (2021)
